Results taken from patent US20250353864A1, “INDAZOLE CONTAINING MACROCYCLES AND THEIR USE” (BLOSSOMHILL THERAPEUTICS, INC., priority 2022, published 2025).
Read-outs that look alike come from different tables or passages of the source.

Columns and labels:
[1] = cc_pd bond; 15-membered ring; Pd(dppf)Cl2/Cs2CO3; 1,4-dioxane/H2O 5:1; 127.0 mM; 90.0 °C
[2] = cc_pd bond
[3] = from C=Cc1nn(C2CCCCO2)c2ccc(-c3cnn(C)c3O[C@H](CC)CN(C)Cc3c(I)c(OCC)nn3CCO[Si](C)(C)C(C)(C)C)cc12; cc_pd bond; 15-membered ring; Pd(OAc)2/TBAC/NaHCO3; DMF; 97.8 mM; 80.0 °C; 1.0 h
EGFR WT = EGFR WT (Homo sapiens (Human), UniProt P00533); assay: HotSpot radiometric kinase assay (Reaction Biology), EGFR WT; assay type: biochemical; settings: 10 μM ATP
EGFR WT, sequence (P00533 25-1210): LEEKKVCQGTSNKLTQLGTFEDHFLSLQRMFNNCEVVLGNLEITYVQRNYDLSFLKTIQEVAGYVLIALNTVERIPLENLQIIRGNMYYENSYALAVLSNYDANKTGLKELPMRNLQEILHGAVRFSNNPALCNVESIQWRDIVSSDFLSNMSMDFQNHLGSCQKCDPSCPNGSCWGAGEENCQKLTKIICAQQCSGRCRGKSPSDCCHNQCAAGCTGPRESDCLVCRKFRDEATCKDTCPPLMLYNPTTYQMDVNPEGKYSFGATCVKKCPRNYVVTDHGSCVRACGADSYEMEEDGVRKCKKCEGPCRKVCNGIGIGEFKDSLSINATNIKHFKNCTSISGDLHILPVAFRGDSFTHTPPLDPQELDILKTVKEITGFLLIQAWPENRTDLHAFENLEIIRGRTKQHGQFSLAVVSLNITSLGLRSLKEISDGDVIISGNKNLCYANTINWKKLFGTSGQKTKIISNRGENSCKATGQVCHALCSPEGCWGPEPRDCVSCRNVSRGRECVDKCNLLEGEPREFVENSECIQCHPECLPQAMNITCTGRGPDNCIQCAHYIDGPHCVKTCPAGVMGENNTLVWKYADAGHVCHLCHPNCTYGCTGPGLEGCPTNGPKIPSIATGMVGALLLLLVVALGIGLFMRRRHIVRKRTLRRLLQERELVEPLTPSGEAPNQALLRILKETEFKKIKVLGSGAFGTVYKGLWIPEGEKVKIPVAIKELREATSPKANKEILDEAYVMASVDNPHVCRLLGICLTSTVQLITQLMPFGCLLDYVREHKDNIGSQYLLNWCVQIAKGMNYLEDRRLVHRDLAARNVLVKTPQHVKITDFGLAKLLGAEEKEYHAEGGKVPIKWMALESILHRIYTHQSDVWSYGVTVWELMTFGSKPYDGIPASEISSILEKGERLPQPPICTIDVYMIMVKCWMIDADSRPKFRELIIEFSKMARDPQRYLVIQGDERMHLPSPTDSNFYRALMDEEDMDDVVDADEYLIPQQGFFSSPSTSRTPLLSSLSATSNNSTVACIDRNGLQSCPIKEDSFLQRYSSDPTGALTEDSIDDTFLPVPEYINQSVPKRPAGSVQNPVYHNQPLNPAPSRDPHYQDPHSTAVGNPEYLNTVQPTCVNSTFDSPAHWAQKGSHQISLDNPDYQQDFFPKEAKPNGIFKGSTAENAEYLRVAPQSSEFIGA
In short: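 10 μM ATP (33P-labelled, final); 120 min RT; P81 filter capture, 0.75% phosphoric acid washes. Cpd preincubated ~20 min with enzyme/substrate, 20 mM Hepes pH 7.5, 10 mM MgCl2, 1% DMSO. IC50 by curve fit.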

EGFR L858R/T790M mutant = EGFR L858R/T790M mutant (Homo sapiens (Human), UniProt P00533, L858R/T790M); assay: HotSpot radiometric kinase assay, EGFR L858R/T790M mutant; assay type: biochemical; settings: 10 μM ATP
In short: (§1)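 Radiometric filter-binding assay with EGFR mutant kinase/substrate pairs in 20 mM Hepes pH 7.5 with Mg, EGTA, Brij35, BSA, Na3VO4, DTT, 1% DMSO. Compound preincubated ~20 min, then ATP/^33P-ATP added at 10 μM final. Reaction 120 min at room temperature, spotted on P81 paper; IC50 from curve fits.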

CLK3 = CLK3 (Homo sapiens (Human), UniProt P49761); assay: Inhibition of CLK3 kinase activity evaluated at Nanosyn (ADP-Glo); assay type: biochemical; settings: ADP-Glo luminescence
CLK3, sequence (P49761 whole entry): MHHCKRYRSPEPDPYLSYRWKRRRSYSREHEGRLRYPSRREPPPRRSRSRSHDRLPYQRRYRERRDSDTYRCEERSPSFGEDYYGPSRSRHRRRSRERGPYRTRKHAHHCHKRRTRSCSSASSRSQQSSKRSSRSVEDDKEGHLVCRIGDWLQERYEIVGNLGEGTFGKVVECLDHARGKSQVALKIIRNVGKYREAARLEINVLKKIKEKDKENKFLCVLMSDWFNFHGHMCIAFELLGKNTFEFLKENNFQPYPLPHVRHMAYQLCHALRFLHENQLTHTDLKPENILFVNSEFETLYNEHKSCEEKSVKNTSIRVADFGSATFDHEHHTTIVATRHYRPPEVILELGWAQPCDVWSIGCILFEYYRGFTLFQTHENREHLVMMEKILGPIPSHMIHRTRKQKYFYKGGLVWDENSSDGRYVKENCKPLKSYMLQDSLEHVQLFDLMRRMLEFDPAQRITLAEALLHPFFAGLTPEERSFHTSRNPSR
In short: (§2)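 Kinase and substrate in pH 7.5 HEPES buffer (5 mM MgCl2, 0.01% Triton X-100, 0.1% BSA) with compound at 1% DMSO; reaction started with ATP, incubated for an assay-specific time. ADP formed detected by ADP-Glo luminescence; %-inhibition versus DMSO and no-enzyme controls.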

[4] = target: EGFR Δ746-750/C797S mutant (Homo sapiens (Human), UniProt P00533, C797S/DEL746-750); assay: HotSpot radiometric kinase assay, EGFR Δ746-750/C797S mutant; assay type: biochemical; settings: 10 μM ATP
In short: as §1

CLK2 = CLK2 (Homo sapiens (Human), UniProt P49760); assay: Inhibition of CLK2 kinase activity evaluated at Nanosyn (ADP-Glo); assay type: biochemical; settings: ADP-Glo luminescence
CLK2, sequence (P49760 whole entry): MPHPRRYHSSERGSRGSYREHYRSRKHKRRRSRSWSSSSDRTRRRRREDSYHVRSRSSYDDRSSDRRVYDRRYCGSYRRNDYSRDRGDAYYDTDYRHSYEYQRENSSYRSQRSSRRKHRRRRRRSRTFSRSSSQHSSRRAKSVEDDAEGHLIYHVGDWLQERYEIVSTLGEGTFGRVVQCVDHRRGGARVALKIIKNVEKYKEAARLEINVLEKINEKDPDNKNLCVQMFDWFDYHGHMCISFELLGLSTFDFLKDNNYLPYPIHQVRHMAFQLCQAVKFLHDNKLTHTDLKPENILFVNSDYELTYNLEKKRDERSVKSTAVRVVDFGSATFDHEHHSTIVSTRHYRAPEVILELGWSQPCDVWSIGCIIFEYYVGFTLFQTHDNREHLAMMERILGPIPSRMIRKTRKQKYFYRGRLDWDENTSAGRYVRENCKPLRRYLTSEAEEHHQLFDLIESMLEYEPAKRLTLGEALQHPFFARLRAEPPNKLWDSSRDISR
In short: as §2

CLK1 = CLK1 (Homo sapiens (Human), UniProt P49759); assay: Inhibition of CLK1 kinase activity evaluated at Nanosyn (ADP-Glo); assay type: biochemical; settings: ADP-Glo luminescence
CLK1, sequence (P49759 whole entry): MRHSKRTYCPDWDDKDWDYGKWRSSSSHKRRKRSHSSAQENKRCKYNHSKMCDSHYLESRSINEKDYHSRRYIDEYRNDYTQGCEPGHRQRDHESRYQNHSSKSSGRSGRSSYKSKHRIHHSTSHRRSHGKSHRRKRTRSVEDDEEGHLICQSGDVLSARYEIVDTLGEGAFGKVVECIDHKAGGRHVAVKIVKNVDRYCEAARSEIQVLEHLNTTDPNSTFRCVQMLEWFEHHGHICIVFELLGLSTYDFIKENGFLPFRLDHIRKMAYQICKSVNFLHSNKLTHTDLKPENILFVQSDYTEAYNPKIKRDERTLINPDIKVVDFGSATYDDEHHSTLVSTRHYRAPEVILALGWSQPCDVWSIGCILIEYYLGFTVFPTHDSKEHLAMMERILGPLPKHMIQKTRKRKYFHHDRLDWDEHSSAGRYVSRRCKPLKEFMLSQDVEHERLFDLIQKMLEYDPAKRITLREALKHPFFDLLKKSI
In short: as §2

CLK4 = CLK4 (Homo sapiens (Human), UniProt Q9HAZ1); assay: Inhibition of CLK4 kinase activity evaluated at Nanosyn (ADP-Glo); assay type: biochemical; settings: ADP-Glo luminescence
In short: as §2

ALK = ALK (Homo sapiens (Human), UniProt Q9UM73); assay: HotSpot radiometric kinase assay, inhibition of ALK kinase activity; assay type: biochemical; settings: 10 μM ATP
Experimental: Briefly, specific kinase/substrate pairs along with required cofactors were prepared in reaction buffer; 20 mM Hepes pH 7.5, 10 mM […], 1 mM EGTA, 0.02% Brij35, 0.02 mg/ml BSA, 0.1 mM Na3VO4, 2 mM DTT, 1% DMSO. Compounds were delivered into the reaction, followed […] later by addition of a mixture of ATP (Sigma, St. Louis MO) and ^33P ATP (Perkin Elmer, Waltham MA) to a final concentration of 10 μM. Reactions were carried out at room temperature for 120 min, followed by spotting of the reactions onto P81 ion exchange filter paper (Whatman Inc., Piscataway, NJ). Unbound phosphate was removed by extensive washing of filters in 0.75% phosphoric acid. […] IC50 values and curve fits were obtained using Prism (GraphPad Software).

EGFR L858R mutant = EGFR L858R mutant (Homo sapiens (Human), UniProt P00533, L858R); assay: HotSpot radiometric kinase assay, EGFR L858R mutant; assay type: biochemical; settings: 10 μM ATP
EGFR L858R mutant, sequence (P00533 25-1210 L858R): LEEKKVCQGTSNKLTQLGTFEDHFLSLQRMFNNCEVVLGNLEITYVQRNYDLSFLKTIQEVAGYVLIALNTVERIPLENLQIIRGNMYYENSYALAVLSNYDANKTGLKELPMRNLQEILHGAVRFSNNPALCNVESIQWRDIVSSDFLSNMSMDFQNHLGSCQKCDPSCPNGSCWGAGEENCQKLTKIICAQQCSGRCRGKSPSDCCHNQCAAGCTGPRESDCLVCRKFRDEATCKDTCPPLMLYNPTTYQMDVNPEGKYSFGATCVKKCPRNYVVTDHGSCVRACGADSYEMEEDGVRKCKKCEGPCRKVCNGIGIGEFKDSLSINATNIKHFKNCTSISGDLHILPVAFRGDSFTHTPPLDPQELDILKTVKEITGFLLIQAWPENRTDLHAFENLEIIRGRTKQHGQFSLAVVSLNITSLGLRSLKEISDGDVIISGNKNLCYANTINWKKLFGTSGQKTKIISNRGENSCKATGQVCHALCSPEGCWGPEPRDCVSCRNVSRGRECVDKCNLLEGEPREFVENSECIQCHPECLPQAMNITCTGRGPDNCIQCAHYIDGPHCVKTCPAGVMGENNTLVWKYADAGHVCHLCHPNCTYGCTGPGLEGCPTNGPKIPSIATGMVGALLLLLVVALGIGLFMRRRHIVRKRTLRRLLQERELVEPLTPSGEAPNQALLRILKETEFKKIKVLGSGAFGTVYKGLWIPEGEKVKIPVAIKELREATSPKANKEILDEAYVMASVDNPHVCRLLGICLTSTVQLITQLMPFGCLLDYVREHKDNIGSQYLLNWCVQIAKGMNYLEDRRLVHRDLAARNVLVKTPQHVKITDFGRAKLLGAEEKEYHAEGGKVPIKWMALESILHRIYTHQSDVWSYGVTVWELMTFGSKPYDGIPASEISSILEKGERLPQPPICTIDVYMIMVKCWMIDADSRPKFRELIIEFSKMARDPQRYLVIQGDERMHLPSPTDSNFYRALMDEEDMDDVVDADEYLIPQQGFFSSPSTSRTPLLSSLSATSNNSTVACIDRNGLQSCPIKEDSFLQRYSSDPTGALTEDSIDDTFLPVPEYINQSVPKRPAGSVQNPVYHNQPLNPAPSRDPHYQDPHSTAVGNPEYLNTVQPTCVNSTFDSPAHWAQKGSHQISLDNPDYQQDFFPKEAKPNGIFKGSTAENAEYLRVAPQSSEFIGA
In short: as §1

EGFR Δ746-750 mutant = EGFR Δ746-750 mutant (Homo sapiens (Human), UniProt P00533, DEL746-750); assay: HotSpot radiometric kinase assay, EGFR Δ746-750 mutant; assay type: biochemical; settings: 10 μM ATP
In short: as §1

[5] = target: EGFR L858R/T790M/C797S mutant (Homo sapiens (Human), UniProt P00533, C797S/L858R/T790M); assay: HotSpot radiometric kinase assay, EGFR L858R/T790M/C797S mutant; assay type: biochemical; settings: 10 μM ATP
EGFR L858R/T790M/C797S mutant, sequence (P00533 25-1210 T790M/C797S/L858R): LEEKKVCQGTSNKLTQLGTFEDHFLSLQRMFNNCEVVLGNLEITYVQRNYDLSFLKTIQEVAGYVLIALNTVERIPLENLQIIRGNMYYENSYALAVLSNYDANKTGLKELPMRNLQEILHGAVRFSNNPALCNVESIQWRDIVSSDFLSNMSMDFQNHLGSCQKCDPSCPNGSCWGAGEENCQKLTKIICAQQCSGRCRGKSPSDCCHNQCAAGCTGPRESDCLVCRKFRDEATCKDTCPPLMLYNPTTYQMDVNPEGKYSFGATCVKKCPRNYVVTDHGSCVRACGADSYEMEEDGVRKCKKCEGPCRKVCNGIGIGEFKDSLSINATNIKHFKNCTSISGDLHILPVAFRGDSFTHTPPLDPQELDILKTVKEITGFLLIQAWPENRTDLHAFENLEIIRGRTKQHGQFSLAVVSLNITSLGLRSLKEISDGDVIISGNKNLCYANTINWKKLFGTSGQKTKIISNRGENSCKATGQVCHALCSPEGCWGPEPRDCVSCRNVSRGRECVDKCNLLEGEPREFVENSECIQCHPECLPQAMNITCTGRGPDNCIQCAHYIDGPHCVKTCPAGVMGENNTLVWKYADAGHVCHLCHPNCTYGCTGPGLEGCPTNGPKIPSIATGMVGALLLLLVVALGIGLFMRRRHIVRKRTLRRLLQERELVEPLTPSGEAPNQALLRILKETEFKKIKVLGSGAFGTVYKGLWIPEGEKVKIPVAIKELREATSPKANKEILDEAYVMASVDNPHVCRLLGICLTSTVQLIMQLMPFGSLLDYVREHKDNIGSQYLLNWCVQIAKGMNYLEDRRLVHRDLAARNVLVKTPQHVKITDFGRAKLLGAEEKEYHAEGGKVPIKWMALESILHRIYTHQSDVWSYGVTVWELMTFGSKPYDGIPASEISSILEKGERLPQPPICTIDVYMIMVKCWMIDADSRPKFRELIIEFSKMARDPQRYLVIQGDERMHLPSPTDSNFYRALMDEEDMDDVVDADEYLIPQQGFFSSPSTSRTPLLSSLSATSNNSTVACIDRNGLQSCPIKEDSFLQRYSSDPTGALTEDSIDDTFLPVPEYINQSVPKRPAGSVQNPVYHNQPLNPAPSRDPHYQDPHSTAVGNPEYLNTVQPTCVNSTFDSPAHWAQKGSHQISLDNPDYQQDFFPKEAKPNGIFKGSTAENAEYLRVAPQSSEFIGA
In short: as §1

EGFR (D770_N771insNPG) = EGFR (D770_N771insNPG) (Homo sapiens (Human), UniProt P00533, INS770NPG); assay: HotSpot radiometric kinase assay, EGFR (D770_N771insNPG); assay type: biochemical; settings: 10 μM ATP, read-out: EGFR (Δ770_N771insNPG) IC50
In short: as §1

2-[(17E)-5,15-dimethyl-21-tetrahydropyran-2-yl-7,10-dioxa-4,5,13,14,20,21-hexazapentacyclo[17.5.2.0^2,6.0^12,160.0^22,26]hexacosa-1(25),2(6),3,12(16),14,17,19,22(26),23-nonaen-13-yl]acetic acid
ring closure, yield after HPLC [1]: 30%

Cc1nn(C)c2c1/C=C/c1nn(C3CCCCO3)c3ccc(cc13)-c1cnn(C)c1CN(C)CC(C)O2 (stereo not drawn)
ring closure, isolated yield ([2]; from Cc1nn(C)c(OC(C)CN(C)Cc2c(-c3ccc4c(c3)c(/C=C/B3OC(C)(C)C(C)(C)O3)nn4C3CCCCO3)cnn2C)c1I, 15-membered ring, XPhos Pd G4/K3PO4, DMA, 66.5 mM, 80.0 °C, 2.0 h): 24%

Cc1nn(C)c2c1C=Cc1nn(C3CCCCO3)c3ccc(cc13)-c1cnn(C)c1OCCOC2 (stereo not drawn)
ring closure, isolated yield ([2]; from Cc1nn(C)c(COCCOc2c(-c3ccc4c(c3)c(/C=C/B3OC(C)(C)C(C)(C)O3)nn4C3CCCCO3)cnn2C)c1I, 15-membered ring, Pd XPhos G4/K3PO4, DMA/H2O, 55.3 mM, 90.0 °C, 3.0 h): 14.2%

CCOC(=O)c1nn(C)c2c1-c1ccc3c(c1)c(nn3C1CCCCO1)/C=C/c1c(OCC)nn(CCO[Si](C)(C)C(C)(C)C)c1CN(CC)C[C@H](C)O2 (stereo partly drawn)
ring closure, isolated yield ([2]; from ethyl 5-[(1S)-2-[[2-[2-[tert-butyl(dimethyl)silyl]oxyethyl]-5-ethoxy-4-iodo-pyrazol-3-yl]methyl-ethyl-amino]-1-methyl-ethoxy]-1-methyl-4-(1-tetrahydropyran-2-yl-3-vinyl-indazol-5-yl) pyrazole-3-carboxylate, 15-membered ring, Pd(OAc)2/TBAC/NaHCO3, DMF, 67.4 mM, 120.0 °C): 77%

Cc1n[nH]c2c1/C=C/c1nn(C3CCCCO3)c3ccc(cc13)-c1cnn(C)c1CN(C(=O)OC(C)(C)C)CCO2 (stereo not drawn)
ring closure, isolated yield ([2]; from tert-butyl N-[2-[(4-iodo-3-methyl-1H-pyrazol-5-yl)oxy]ethyl]-N-[[2-methyl-4-[1-tetrahydropyran-2-yl-3-[(E)-2-(4,4,5,5-tetramethyl-1,3,2-dioxaborolan-2-yl)vinyl]indazol-5-yl]pyrazol-3-yl]methylicarbamate, 15-membered ring): 54%

Cc1c2c(nn1C)C=Cc1nn(C3CCCCO3)c3ccc(cc13)-c1cnn(C)c1O[C@@H](C)CN(C)C2 (stereo partly drawn)
ring closure, isolated yield ([2]; from Cc1c(CN(C)C[C@H](C)Oc2c(-c3ccc4c(c3)c(/C=C/B3OC(C)(C)C(C)(C)O3)nn4C3CCCCO3)cnn2C)c(I)nn1C, 15-membered ring, BrettPhos Pd G4/Na2CO3 aq, dioxane/H2O, 24.8 mM, 80.0 °C, 2.0 h): 58%

CCOc1nn(CCO)c2c1/C=C/c1nn(C3CCCCO3)c3cc(F)c(cc13)-c1cnn(C)c1O[C@@H]1CCCN(C2)C1 (stereo partly drawn)
ring closure, isolated yield ([2]; from CCOc1nn(CCO)c(CN2CCC[C@@H](Oc3c(-c4cc5c(/C=C/B6OC(C)(C)C(C)(C)O6)nn(C6CCCCO6)c5cc4F)cnn3C)C2)c1I, 15-membered ring, CataCXium A Pd G3/K3PO4, dioxane, 112.0 mM, 90.0 °C, 2.0 h): 42%

CCOc1nn(CCO[Si](C)(C)C(C)(C)C)c2c1/C=C/c1nn(C3CCCCO3)c3cc(F)c(cc13)-c1c(C)nn(C)c1O[C@@H](C)CN(C(C)C)C2 (stereo partly drawn)
ring closure, isolated yield ([2]; from C=Cc1nn(C2CCCCO2)c2cc(F)c(-c3c(C)nn(C)c3O[C@@H](C)CN(Cc3c(I)c(OCC)nn3CCO[Si](C)(C)C(C)(C)C)C(C)C)cc12, 15-membered ring, Pd(OAc)2/TBAC/NaHCO3, DMF, 96.7 mM, 140.0 °C, 1.0 h): 84%

CCOc1nn(CCO[Si](C)(C)C(C)(C)C)c2c1C=Cc1nn(C3CCCCO3)c3ccc(cc13)-c1cnn(C)c1O[C@H](CC)CN(C)C2 (stereo partly drawn)
ring closure, crude yield [3]: 62%

Cc1nn(C)c2c1/C=C/c1n[nH]c3ccc(cc13)-c1cnn(C)c1O[C@@H](C)CN(C)C2 [Example 120, (10S,17E)-8,10,12,14,16-pentamethyl-2,10,11,12,13,14-hexahydro-8H-3,5-ethenotripyrazolo[3,4-f:3′,4′-j:4″,3″- n][1,4]oxazacyclopentadecine]
IC50 (EGFR WT): 41.3 nM
IC50 (EGFR L858R/T790M mutant): 0.33 nM
IC50 (CLK3): 112 nM
IC50 [4]: 5.8 nM
IC50 (CLK2): 0.08 nM
IC50 (CLK1): 0.12 nM
IC50 (CLK4): 0.27 nM
IC50 (ALK): 1.82 nM
IC50 (EGFR L858R mutant): 7.91 nM
IC50 (EGFR Δ746-750 mutant): 7.76 nM
IC50 [5]: 2.62 nM
IC50 (EGFR (D770_N771insNPG)): 99.8 nM

Cn1ncc2c1OCCN1CC[C@@H](Oc3ccccc3/C=C/c3nn(C4CCCCO4)c4ccc-2cc34)C1=O (stereo partly drawn)
ring closure, isolated yield ([2]; from Cn1ncc(-c2ccc3c(c2)c(/C=C/B2OC(C)(C)C(C)(C)O2)nn3C2CCCCO2)c1OCCN1CC[C@@H](Oc2ccccc2I)C1=O, 17-membered ring, XPhos Pd G4/K3PO4, DMA, 25.0 mM, 80.0 °C, 2.0 h): 36%

CCOc1nn(CCO)c2c1/C=C/c1n[nH]c3ccc(cc13)-c1cnn(C)c1O[C@@H](C)CN(C)C2 [Example 119, 2-[(10S,17E)-16-ethoxy-8,10,12-trimethyl-2,8,10,11,12,13-hexahydro-14H-3,5-ethenotripyrazolo[3,4-f:3′,4′-j:4″,3″-n][1,4]oxazacyclopentadecin-14-yl]ethan-1-ol]
IC50 (EGFR WT): 2.34 nM
IC50 (EGFR L858R/T790M mutant): 0.26 nM
IC50 (CLK3): 19.4 nM
IC50 [4]: 1.25 nM
IC50 (CLK2): 0.04 nM
IC50 (CLK1): 0.14 nM
IC50 (CLK4): 0.33 nM
IC50 (ALK): 1.05 nM
IC50 (EGFR L858R mutant): 0.61 nM
IC50 (EGFR Δ746-750 mutant): 0.63 nM
IC50 [5]: 2.12 nM
IC50 (EGFR (D770_N771insNPG)): 8.5 nM

CCOc1nn([C@@H](C)CO)c2c1/C=C/c1n[nH]c3cc(F)c(cc13)-c1cnn(C)c1O[C@@H](C)CN(CC)C2 [Example 215]
IC50 (EGFR WT): 1.71 nM
IC50 (EGFR L858R/T790M mutant): 1.49 nM
IC50 (CLK3): 964 nM
IC50 [4]: 1.93 nM
IC50 (CLK2): 2.1 nM
IC50 (CLK1): 3.33 nM
IC50 (CLK4): 9.08 nM
IC50 (ALK): 2.58 nM
IC50 (EGFR L858R mutant): 1.7 nM
IC50 (EGFR Δ746-750 mutant): 0.69 nM
IC50 [5]: 0.89 nM
IC50 (EGFR (D770_N771insNPG)): 3.75 nM

COC(=O)[C@H]1CN(C)Cc2c(c(OC(C)C)nn2CCO[Si](C)(C)C(C)(C)C)/C=C/c2nn(C3CCCCO3)c3ccc(cc23)-c2cnn(C)c2O1 (stereo partly drawn)
ring closure, isolated yield ([2]; from C=Cc1nn(C2CCCCO2)c2ccc(-c3cnn(C)c3O[C@H](CN(C)Cc3c(I)c(OC(C)C)nn3CCO[Si](C)(C)C(C)(C)C)C(=O)OC)cc12, 15-membered ring, Pd(OAc)2/TBAC/TEA, DMF, 11.6 mM, 100.0 °C, 2.0 h): 47%

Cn1ncc2c1OCCN1CC[C@@H](Oc3cc(Cl)ccc3C=Cc3nn(C4CCCCO4)c4ccc-2cc34)C1=O (stereo partly drawn)
ring closure, isolated yield ([2]; from Cn1ncc(-c2ccc3c(c2)c(/C=C/B2OC(C)(C)C(C)(C)O2)nn3C2CCCCO2)c1OCCN1CC[C@@H](Oc2cc(Br)ccc2I)C1=O, 17-membered ring, Pd(dppf)Cl2.CH2Cl2/K2CO3, dioxane/H2O 5:1, 19.4 mM, 90.0 °C, 2.0 h): 38%
